What is called Ki is the equilibrium dissociation constant of an inhibitor or competing ligand from its target. A higher Ki goes with lower affinity.

The record followed here is publication PMC3839116 (Bioorganic & medicinal chemistry, 2012).

Experiment [1] has as its target T1, vcASADH (Vibrio cholerae serotype O1, UniProt Q9KQG2).
T1 sequence (Q9KQG2 1-370): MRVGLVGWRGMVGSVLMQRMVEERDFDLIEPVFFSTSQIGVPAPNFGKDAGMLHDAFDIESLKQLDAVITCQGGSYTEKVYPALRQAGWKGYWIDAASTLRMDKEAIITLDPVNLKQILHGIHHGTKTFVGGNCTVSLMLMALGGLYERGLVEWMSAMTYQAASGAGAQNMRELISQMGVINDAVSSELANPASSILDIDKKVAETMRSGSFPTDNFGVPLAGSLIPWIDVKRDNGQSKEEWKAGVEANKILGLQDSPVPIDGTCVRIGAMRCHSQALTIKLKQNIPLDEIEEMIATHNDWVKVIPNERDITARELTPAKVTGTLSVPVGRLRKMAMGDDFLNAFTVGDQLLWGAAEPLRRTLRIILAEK
As to the kind of experiment: ASADH enzyme kinetic assay.

The next experiment has as its target T2, spASADH (Streptococcus pneumoniae, UniProt Q8DQ00).
T2 sequence (Q8DQ00 1-358): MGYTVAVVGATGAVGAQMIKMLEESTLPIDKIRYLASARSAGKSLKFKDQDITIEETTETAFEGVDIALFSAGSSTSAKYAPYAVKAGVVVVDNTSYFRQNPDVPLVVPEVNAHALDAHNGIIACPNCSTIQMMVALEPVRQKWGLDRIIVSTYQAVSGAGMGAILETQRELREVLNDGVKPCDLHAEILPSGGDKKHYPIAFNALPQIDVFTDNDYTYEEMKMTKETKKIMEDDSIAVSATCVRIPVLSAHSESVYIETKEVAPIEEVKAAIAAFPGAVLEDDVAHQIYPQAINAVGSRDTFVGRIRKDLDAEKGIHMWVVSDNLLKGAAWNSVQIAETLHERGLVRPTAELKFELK
As to the kind of experiment: ASADH enzyme kinetic assay. The conditions noted are these: for ligand efficiency: enzyme form not stated; for fold increase in binding affinity: relative to M11, M9: enzyme form not stated, M14: spASADH.

The target of experiment [2] is T1, vcASADH. As to the kind of experiment: More thorough kinetic analysis, inhibitor varied against substrate ASA. The class given is biochemical. The note with it: against the substrate ASA.

Each structure is given as a SMILES string.

`COC(=O)c1ccc([N+](=O)[O-])cn1` [Compound M6m, 5-Nitropyridine-2-methylcarboxylate] had a Ki at vcASADH [1] of more than 20 mM.
As for `CCN1C(=O)c2ccc([N+](=O)[O-])cc2C1=O` [Compound M11e, 4-Nitro-N-ethylphthalimide], on vcASADH [1], the Ki is more than 4 mM and the “affinity for vcASADH (in words)” value was “no affinity”. Also, the “affinity for spASADH (in words)” value at spASADH is on record as “no affinity”.
For the compound `COC(=O)c1ccc(C(=O)OC)nc1` [Compound M7m, Pyridine-2,5-dimethylcarboxylate], at vcASADH [1], the Ki was more than 20 mM.
With `O=C1NC(=O)c2cc([N+](=O)[O-])c(Cl)cc21` [Compound M9], at spASADH, the ligand efficiency came out at 0.35 kcal/mol/heavy atom and the “fold increase in binding affinity” value is approximately 10 fold. The inhibition type result against vcASADH [2] was “competitive inhibitors”.
For the compound `O=C(O)c1ccc(C(=O)O)cc1` [1,4-benzenedicarboxylate, reference compound], the “affinity for vcASADH (in words)” value on vcASADH [1] is “no affinity”. For the same compound, the “affinity for spASADH (in words)” value on spASADH is “no affinity”.
Take `O=C(O)c1cc(C(=O)O)cc(C(=O)Nc2ccc([N+](=O)[O-])cc2)c1` [Compound M17]: at spASADH, the ligand efficiency was 0.22 kcal/mol/heavy atom.
Compound `Cn1c(=O)n(C)c2cc([N+](=O)[O-])ccc21` [Compound M14m, 4-Nitro-N,N-dimethylbenzimidazolinone] returned a Ki on vcASADH [1] of 0.13 ± 0.02 mM. For the same compound, the inhibition type result on vcASADH [2] is given as “competitive inhibitors”.
Regarding `COC(=O)c1cc(C(=O)Nc2ccc([N+](=O)[O-])cc2)cc(C(=O)OC)c1` [Compound M17m, 5-[[(4-Nitrophenyl)amino]carbonyl]-1,3-benzenedimethylcarboxylate], at vcASADH [1], the Ki was more than 20 mM.
As to `O=c1[nH]c2ccc([N+](=O)[O-])cc2[nH]1` [Compound M14, 5-nitro-2-benzimidazolinone], on spASADH, the “fold increase in binding affinity” value is reported as approximately 10 fold.
